In patent US10072038B2, “Crystal of ammonium N-acetylneuraminate anhydrate, and process for producing same” (KYOWA HAKKO BIO CO., LTD., priority 2015, dated 2018):
Blank lines part the entries; values can stand above or below the compound they belong to.

Columns and labels:
[1] = Stability under high temperature conditions judged from melting point; assay type: physicochemical; conditions: inferred from melting point 166.2° C. vs around 105° C. of known monohydrate
Experimental: (5) Measurement of Melting Point
The measurement was performed using Melting Point M-565 (manufactured by BUCHI) according to the instruction book.
In addition, the melting point of the crystal of NeuAc ammonium salt anhydrate is 166.2° C. and is higher than the melting point of around 105° C. of known NeuAc ammonium salt monohydrate salt.

[2] = Weight change (moisture absorption) under an atmosphere of 25° C. and a humidity of 60%; assay type: physicochemical; conditions: humidity 60%; for weight increase due to moisture absorption: up to 24 h
Experimental: With respect to the crystal of NeuAc ammonium salt anhydrate and the noncrystalline amorphous NeuAc ammonium salt acquired in Reference Example 1, the weight change under an atmosphere of 25° C. and a humidity of 60% was compared, and the results are shown in Table 5.

[3] = Degree of coloration when stored in a closed system at 60° C. (transmittance at 430 nm); assay type: physicochemical; conditions: for Transmittance T % 430 nm: stored in closed system at 60° C., solution 100 g/L in terms of an anhydrate, 1 cm
Experimental: With respect to the crystal of NeuAc ammonium salt anhydrate and a crystal of known NeuAc dihydrate, the degree of coloration when stored in a closed system at 60° C. was compared, and the results are shown in Table 8. The degree of coloration is expressed by transmittance T % 430 nm=100×10^−A (A=Abs: 430 nm, 1 cm), which was obtained by dissolving each crystal at 100 g/L in terms of an anhydrate and performing measurement for the solution.

[4] = Measurement of degree of solubility in water (HPLC of supernatant); assay type: physicochemical; conditions: FIG. 5; compared with crystal of known NeuAc dihydrate
Experimental: (2) Measurement of Degree of Solubility
A crystal of NeuAc ammonium salt anhydrate, or a crystal of known NeuAc dihydrate was added to water adjusted to the respective temperatures until each crystal remained undissolved and after keeping the solution for a sufficient time under stirring, the supernatant containing no crystal was collected, and the concentration of NeuAc therein was measured using the following HPLC conditions.
Guard column: Shodex SUGAR SH-G ϕ6.0×50 mm
Column: SUGAR SH1011 ϕ8.0×300 mm×2 columns in series
Column temperature: 60° C.
Buffer: an aqueous 0.005 mol/L sulfuric acid solution
Detector: UV detector (wavelength: 210 nm)
The degrees of solubility in water of the crystal of NeuAc ammonium salt anhydrate obtained above and a crystal of NeuAc dihydrate are illustrated in FIG. 5.

[5] = pH of aqueous solution of the crystal; assay type: physicochemical; conditions: aqueous solution at 100 g/L in terms of NeuAc ammonium salt
Experimental: As for the pH, an aqueous solution at 100 g/L in terms of NeuAc ammonium salt was measured.

[6] = normal temperature; cited from earlier work
[7] = cited from earlier work

Rate of weight change ([2]; elapsed time 0 h): 0.00%
Rate of weight change ([2]; elapsed time 3 h): −0.08%
Rate of weight change ([2]; elapsed time 7 h): −0.10%
Rate of weight change ([2]; elapsed time 24 h): −0.06%
weight increase due to moisture absorption ([2]; listed as crystal of NeuAc ammonium salt anhydrate): a weight increase was not observed
coloration during storage ([3]; closed system at 60° C., compared with crystal of known NeuAc dihydrate): extremely low
Transmittance T % 430 nm ([3]; 0 days): 99.73%
Transmittance T % 430 nm ([3]; 3 days): 98.87%
Transmittance T % 430 nm ([3]; 6 days): 98.49%
pH ([5]; listed as Example 1): 7.07
pH ([5]; listed as Example 2): 6.60
pH ([5]; listed as Example 3): 6.39
Compound: CC(=O)N[C@H]1[C@H]([C@H](O)[C@H](O)CO)OC(O)(C(=O)O)C[C@@H]1O.N (stereo partly drawn) [Crystal of ammonium salt, ammonium N-acetylneuraminate anhydrate]
stability under high temperature conditions [1]: stable even under high temperature conditions
degree of solubility in water [4]: large degree of solubility compared with the degree of solubility of the crystal of known NeuAc dihydrate

Transmittance T % 430 nm ([3]; 0 days): 100.1%
Transmittance T % 430 nm ([3]; 3 days): 73.26%
Transmittance T % 430 nm ([3]; 6 days): 50.46%
Compound: CC(=O)N[C@H]1[C@H]([C@H](O)[C@H](O)CO)OC(O)(C(=O)O)C[C@@H]1O (stereo partly drawn) [Dihydrate crystal, N-Acetylneuraminic acid, reference compound]
degree of solubility [6]: about 100 g/L
storage stability (discoloration of crystal and solution) [7]: gradually discolored to dark brown

Rate of weight change ([2]; elapsed time 3 h, ammonium salt): 6.58%
Rate of weight change ([2]; elapsed time 7 h, ammonium salt): 10.4%
Rate of weight change ([2]; elapsed time 24 h, ammonium salt): 13.5%
deliquescence ([2]; when 24 hours had passed): deliquesced
Compound: CC(=O)N[C@H]1[C@H]([C@H](O)[C@H](O)CO)OC(O)(C(=O)O)C[C@@H]1O.N (stereo partly drawn) [Noncrystalline amorphous, NeuAc ammonium salt, reference compound]
weight increase due to moisture absorption ([2]; listed as noncrystalline amorphous NeuAc ammonium salt, ammonium salt): marked weight increase due to moisture absorption
